Test results as given in PMC11860023, “Synthesis and Characterization of Memantine-Loaded Niosomes for Enhanced Alzheimer’s Disease Targeting” (Pharmaceutics, 2025).
Converted amounts (≈) assume the structure as drawn. Marks after values point to notes of the source that are not given here.

What was measured:
[1] = tested on: human fibroblast (HDFa) cell cultures; experiment: Nuclear abnormality / micronucleus analysis by Hoechst 33258 staining in HDFa cells; assay type: cell-based; conditions: 24 h, 125 μg/mL
Protocol: (§1) The human fibroblast cell line (ATCC® PCS-201-012™ Manassas, VA, USA) was propagated in DMEM culture medium enriched with a 1% mixture of penicillin/streptomycin antibiotics and 10% fetal bovine serum (FBS) and maintained in an atmosphere containing 5% CO2 at a temperature of 37 °C until they reached full confluence. To identify nuclei alterations, Hoechst 33258 fluorescent dye was employed. […] Following the treatment period, the cells were stabilized using 4% paraformaldehyde at a cool temperature of 4 °C for 30 min. The cells were then rinsed with PBS and exposed to 1 µM of the Hoechst 33258 dye for a brief duration of 5 min [15]. After the staining process, the cells were examined and imaged using a Leica® DM IL LED (Leica Microsystems, Wetzlar, DE) fluorescent microscope.
Figure 4 Analysis of the genotoxic properties of synthesized memantine derivatives (MP1–4) in cultured human fibroblast cells (HDFa) using Hoechst 33258 fluorescent staining of cell nuclei. (A) MP1, (B) MP2, (C), MP3 and (D) MP4.

[2] = Drug loading (encapsulation efficiency) of niosomes, UV at 236 nm after centrifugal filtration; assay type: physicochemical; conditions: Span60:cholesterol 2:1, drug 1 mg/mL
Protocol: The efficiency of MP1–4 encapsulation within the niosomes was evaluated by quantifying the unencapsulated MP1–4. This was achieved by centrifuging the niosomal mixtures at 4 °C for 20 min at a speed of 4000 rpm, utilizing an Amicon Ultra centrifuge filter unit (Millipore Merck, Darmstadt, DE). The optical density of the supernatant containing free MP1–4 was measured at a wavelength of 236 nm with a UV–Vis spectrophotometer (Eppendorf® 580R centrifuge, Hamburg, DE). By determining the concentration of the free drug in the supernatant, we were able to calculate the unknown amount of encapsulated drug. The encapsulation efficiency percentage was then computed based on the initial molecule concentration (Ci) used in the niosome preparation versus the concentration found post-centrifugation (Cf), as in the following equation:% Loading capacity = [(Ci − Cf)/Ci] × 100 (1)
The loading capacities of the synthesized memantine derivative compounds in the niosomal drug delivery system were examined in detail. In this study, loading efficiency was determined by centrifuging niosomal formulations using an Amicon Ultra centrifuge filter device (Millipore Merck, Burlington, MA, USA) at 4000 rpm for 20 min at 4 °C. The amount of free drug remaining was recorded using a UV–Vis spectrophotometer (Eppendorf® 580R centrifuge, Hamburg, DE). […] However, the loading capacity of the memantine derivative MP2 was determined to be 53%, which is below the desired capacity.

[3] = In vitro drug release from niosomes (dialysis membrane, PBS-SDS, 37 °C); assay type: physicochemical; conditions: for Higuchi coefficient (kH): release from niosomal carriers, Higuchi model
Protocol: To investigate the drug’s release profile from the niosomes, an in vitro release study was performed. For the release study, we used loading rates calculated by a drug loading study. A 2 mL aliquot of the optimized niosomal formulation was enclosed within a dialysis membrane (with a 12 kDa molecular weight cut-off) and incubated for 72 h at 37 °C. This incubation occurred in a stirring environment within 50 mL of a release solution composed of phosphate-buffered saline with 0.5% sodium dodecyl sulfate (PBS-SDS) by w/v. Samples of 1 mL were systematically withdrawn at specific intervals (1, 2, 4, 8, and 24 h) from the release medium, with each withdrawal immediately compensated for by an equivalent volume of fresh release medium. The optical density of these samples was measured at 236 nm using a spectrophotometer. From these measurements, the quantity of memantine released was calculated, and the release percentages were reported as a proportion of the total drug release.
Drug release capacities with MP1–4 were determined using the niosomal release systems generated. […] This feature offers an important advantage in terms of controlled drug release. The drug release study was carried out by measuring the absorbance using a spectrophotometer on samples taken at specific time intervals (1, 2, 4, 8, and 24 h). These measurements were carried out at the max peak of the drugs, and the data obtained were used to determine the amount of memantine derivative drug released. The results present the percentages of the released content as a percentage of total release. […] It was also concluded that a slow and proportional release occurred over the indicated time period, indicating the potential for controlled drug release (Figure 6).

[4] = tested on: differentiated SH-SY5Y cells; experiment: MTT cell viability test in differentiated SH-SY5Y cell cultures; assay type: cell-based, human; conditions: for cell viability at the highest concentration: 500 µg/mL; for IC50: Homo sapiens, read-out: IC50 (concentration required to achieve 50% cell viability), MTT
Protocol: Differentiated SH-SY5Y cells were seeded into 96-well plates, with each well containing 100 μL of culture medium with 2 × 10^4 cells. […] At the end of the incubation period, 10 μL of MTT mixture was added to each well for MTT analysis. The mixture was gently stirred using a circular mixer for 1 min and then incubated in a CO2 incubator at 37 °C for 3–4 h. […] The culture medium was carefully aspirated from each compartment without disturbing the cell layer. Alternatively, before aspiration, the plate was centrifuged at 400× g for 10 min to settle non-adherent cells. Then, 100 μL of crystal solvent solution (DMSO) was added to each compartment, and the absorbance of each sample was measured at 570 nm using a microplate reader [18].

[5] = tested on: differentiated SH-SY5Y cells exposed to amyloid beta 1−42 peptide; experiment: Neuroprotection in the in vitro AD model (differentiated SH-SY5Y exposed to amyloid beta 1-42), MTT; assay type: cell-based, human; conditions: for concentration range of optimal neuroprotective activity: AD model, differentiated neuronal cultures; for increase of cell viability versus amyloid beta only control: derivative loaded into niosomal drug delivery system, 47 µg/mL, 24 h; for cell viability versus amyloid beta only control (neuroprotective effect): free compound 47 µg/mL, 10 µM amyloid beta 1−42
Protocol: (§2) The SH-SY5Y neuroblastoma cell line, frequently used as an in vitro model of Alzheimer’s disease, has been cultured to transform into mature neuron-like structures through differentiation with retinoic acid (RA). For this purpose, the SH-SY5Y neuroblastoma cell line was grown in a DMEM:F12 nutrient medium environment with 10% fetal bovine serum (FBS) growth factor, 1% Penicillin/streptomycin, and 5% CO2 at 37 °C. The nutrient medium was refreshed every three days, with half the volume changed. Cells were subcultured after treatment with trypsin/EDTA for 5 min. To differentiate SH-SY5Y cells, the medium containing 10 µM RA (DMEM:F12 + 15% FBS) was added. Five days after the addition of RA, the cells were washed three times with PBS and incubated in DMEM:F12. The differentiation of the cells was determined by cell cycle analysis using a flow cytometry system. […] Converted cell cultures were used as a negative control, and cell cultures with only amyloid beta were used as a positive control without adding the synthesized molecules. The viability rates in the in vitro AD model that we intended to create were analyzed with MTT cytotoxicity tests.
Differentiated SH-SY5Y cells were seeded into 96-well plates, with each well containing 100 μL of culture medium with 2 × 10^4 cells. […] At the end of the incubation period, 10 μL of MTT mixture was added to each well for MTT analysis. The mixture was gently stirred using a circular mixer for 1 min and then incubated in a CO2 incubator at 37 °C for 3–4 h. […] The culture medium was carefully aspirated from each compartment without disturbing the cell layer. Alternatively, before aspiration, the plate was centrifuged at 400× g for 10 min to settle non-adherent cells. Then, 100 μL of crystal solvent solution (DMSO) was added to each compartment, and the absorbance of each sample was measured at 570 nm using a microplate reader.
This peptide is instrumental in AD pathology and serves as a pertinent stressor for assessing the neuroprotective efficacy of potential therapeutic agents.
In the conducted in vitro studies, the neuroprotective effects of memantine derivatives encapsulated within a nanosomal drug delivery system were evaluated using the SH-SY5Y neuroblastoma cell line as a model for AD. The differentiated neuronal cultures were treated with memantine derivatives which were loaded into the niosomal drug delivery systems at a uniform concentration of 47 µg/mL across three independent experimental repeats.

[6] = tested on: bEnd.3 cells / SH-SY5Y disease model; experiment: In vitro BBB permeability test, transwell bEnd.3 monolayer over SH-SY5Y disease model, viability readout; assay type: cell-based; conditions: carrier 0.1 mg/mL loaded with 47 µg/mL vs non-loaded 47 µg/mL, 24 h
Protocol: In vitro BBB models were created using a transwell culture system for BBB permeability analysis. Initially, bEnd.3 cells were seeded inside the membrane of the plate at a starting density of 1 × 10^5 cells/well and cultured for about a week in DMEM growth medium supplemented with 10% fetal bovine serum. Subsequently, the upper compartments containing bEnd.3 monolayers were transferred to plates containing SH-SY5Y cells coated at the bottom of the lower compartments. Then, carrier particles were added to the apical upper chambers of the BBB models at a final concentration of 0.1 mg/mL. Approximately 24 h after incubation, viability analyses were conducted on the SH-SY5Y disease model formed in the lower layer to determine BBB permeability capacities. A schematic diagram of the method is shown below (Figure 2). Prior to starting the experimental procedures, the bEnd.3 cells were cultured until 90–100% confluency was achieved, as this confluency level is necessary for tight junction formation and optimal barrier properties. The integrity of the cell monolayer was then evaluated under an inverted microscope to confirm confluence and uniform cell distribution, ensuring the reliability of the in vitro BBB model.
In vitro BBB permeability analyses were conducted by establishing in vitro transwell BBB models, within which the effects of drug-loaded MP1–4 were studied. […]

[7] = tested on: human fibroblast cells (HDFa); experiment: MTT cell viability assay of MP1–4 in cultured human fibroblast cells (HDFa); assay type: cell-based; conditions: at each concentration applied
Protocol: as §1
The human fibroblast cell line HDFa was cultured and tested for toxicity with 4 different memantine derivatives in 48-well plates. The experiments, conducted in triplicate, included both treated and untreated (negative control) cell cultures. Post-treatment, the cells were incubated with an MTT mixture to assess cell viability, followed by the addition of a crystal solvent solution (DMSO) to dissolve formazan crystals formed in viable cells. The absorbance of each sample was measured to evaluate the cytotoxic effects of the memantine derivatives on the fibroblast cells. […]

SH-SY5Y cells = experiment: Cell cycle distribution of SH-SY5Y cells by flow cytometry after retinoic acid differentiation; assay type: cell-based, human; conditions: all-trans retinoic acid 10 µM, 11 days
Protocol: as §2
To confirm successful differentiation, flow cytometry was utilized to analyze the cell cycle distribution within the cultures.

Row | Drug Loading (%) / encapsulation efficiency [2] | drug release behaviour from niosomal release systems ([3]; sampling at 1, 2, 4, 8 and 24 h) | IC50 [4] | Compound | Mean NA/1000 Cells ± SD [1] | Nuclear Abnormalities (NA) Total Lobbed [1] | Nuclear Abnormalities (NA) Total MN [1] | Nuclear Abnormalities (NA) Total Notched [1] | Higuchi coefficient (kH) [3] | cell viability at the highest concentration [4] | concentration range of optimal neuroprotective activity [5] | increase of cell viability versus amyloid beta only control [5] | cell viability versus amyloid beta only control (neuroprotective effect) [5] | effect on cell viability / neuroprotection of niosome-loaded versus non-loaded derivative [6] | decrease of cell viability [7] | Cell Population (%) G1 Phase (SH-SY5Y cells) | Cell Population (%) G2 Phase (SH-SY5Y cells) | Cell Population (%) S Phase (SH-SY5Y cells)
1 | ≥ 85% | most optimal drug release | 5620 µg/mL (≈ 18400 µM) | CCCC(CCC)C(=O)NC12CC3CC(C)(CC(C)(C3)C1)C2 [MP1] | 0.013 ± 0.001 ^a | 3 | 5 | 5 | 10.36 | relatively higher cell viability | 15.6 to 62.5 µg/mL | approximately 40% | significantly enhanced cell viability | higher effect on cell viability and a significant increase in neuroprotective properties |  |  |  | 
2 | 53% |  | 457 µg/mL (≈ 1400 µM) | CC12CC3CC(C)(C1)CC(NC(=O)CCCc1ccccc1)(C3)C2 [MP2] | 0.012 ± 0.002 ^a | 5 | 4 | 3 | 7.55 | relatively higher cell viability | 31.25 to 125 µg/mL | approximately 40% | significantly enhanced cell viability |  |  |  |  | 
3 | ≥ 85% |  | 659 µg/mL (≈ 1930 µM) | CC12CC3CC(C)(C1)CC(NC(=O)/C=C/c1ccc(O)c(O)c1)(C3)C2 [MP4] | 0.013 ± 0.003 ^a | 4 | 5 | 4 | 10.82 | significantly reduced |  | approximately 40% | significantly enhanced cell viability | higher effect on cell viability and a significant increase in neuroprotective properties | ~40% |  |  | 
4 |  |  |  | CC1=C(/C=C/C(C)=C/C=C/C(C)=C/C(=O)O)C(C)(C)CCC1 [RA Treated, all-trans retinoic acid] |  |  |  |  |  |  |  |  |  |  |  | 72.45 ± 3.78 % | 5.34 ± 0.17 % | 18.65 ± 3.23 %
